# Experimental data: patent publication US12453715B2, “Use of artemether in the prevention and treatment of Alzheimer's disease” (UNIVERSITY OF MACAU, priority 2018, dated 2025)
# Legend:
# [1] = test system: PC12 cells; test: MTT assay, Aβ1-42-induced cytotoxicity in PC12 cells; format: cell-based; conditions: 1 μM Aβ1-42 for 24 hours
# Procedure: PC12 cells were cultured in DMEM (Dulbecco's Modified Eagle's) medium supplemented with 10% fetal bovine serum (FBS) and 100 μg/ml streptomycin in a humidified incubator 5% CO2 at 37° C. The cells were seeded in 96-well plates, and then treated with Aβ1-42a and artemether. MTT assay was used to access cell viability. MTT (3-(4,5-dimethylthiazole-2)-2,5-diphenyltetrazolium bromide) the detection principle relies on the enzymatic reduction of MTT to water-insoluble purple crystals-formazan particles, which is catalyzed by mitochondrial succinate dehydrogenase produced in living cells. The light absorption value is measured by an enzyme-linked immunoassay at 570 nm wavelength allowing to determine the number of living cells based on the amount of formazan produced. In short, PC12 cells were seeded in 96-well plates. In the next day the medium was replaced with fresh DMEM, and the cells pretreated with different concentrations of artemether or untreated followed by incubation with 1 μM Aβ1-42 for 24 hours. After 24 hours, MTT (0.5 mg/mL) was added to each well and further incubated for another 3 hours at 37° C. After incubation, the cells and MTT formazan crystals were dissolved with DMSO, and the absorbance was measured at 570 nm. Cell viability was calculated as a percentage of the control group.
# [2] = test system: PC12 cells; test: AMPK inhibitor compound C against the protective effect of artemether in PC12 cells (MTT, flow cytometry, Western blot); format: cell-based
# Procedure: Apoptosis was evaluated by flow cytometry. PC12 cells were seeded into 6-well plates, treated, digested with 0.25% trypsin, harvested, washed twice with ice cold 1×PBS and suspended with buffer. […] were stained with 5 μL Annexin-V-FITC and 10 μL propidium iodide solution, incubated for 30 min in the dark, and the apoptotic cells in each group were determined and analyzed using a flow cytometer. The other steps are the same as in Embodiment 2.4 and Embodiment 10.
Compound,effective dose for protection from Aβ1-42-induced cytotoxicity [1],"protection from Aβ1-42-induced cytotoxicity (cell viability, MTT) ([1]; artemether pretreatment)","effect on phosphorylation of AMPK and GSK3β (ser9) induced by artemether ([2]; Western blot, GAPDH as internal control)","effect on the protection by artemether from Aβ1-42-induced apoptosis (flow cytometry) ([2]; compound C pretreatment with artemether, Aβ1-42 (1 μM))","effect on the cell survival effect of artemether (cell viability, MTT) ([2]; compound C pretreatment with artemether, Aβ1-42 (1 μM) for 24 hours)"
CO[C@H]1O[C@@H]2O[C@@]3(C)CC[C@H]4[C@H](C)CC[C@@H]([C@H]1C)[C@@]24OO3 [artemether],about 10 μM,protected PC12 cells from Aβ1-42-induced cytotoxicity in a concentration-dependent manner,,,
c1cc(-c2cnn3cc(-c4ccc(OCCN5CCCCC5)cc4)cnc23)ccn1 [compound C],,,reversed the phosphorylation of AMPK and GSK3β (ser9) induced by artemether,alleviated the protective effect of artemether on Aβ1-42-induced apoptosis,abolished the elevated cell survival effect of artemether
